Measured values published in PubChem BioAssay AID248 (DTP/NCI, 2004).
Where “and” joins values, the source holds several entries; their conditions need not be identical. Identical values can stand only once. Toxic doses and inconclusive results are not listed.

System: L1210 leukemia ip in BDF1 mice, survival T/C
Assay: NCI In Vivo Anticancer Drug Screen. Data for tumor model L1210 Leukemia (intraperitoneal) in B6D2F1 (BDF1) mice
Conditions: endpoint: mean survival time, higher = longer survival
How it was run: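 Transplantable tumor model; survival measured in treated vs vehicle control mice. Value = treated/control.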

[1] = dose: 100.0 mg/kg/injection, schedule: Q04DX003 (ip), vehicle: saline with Tween-80
[2] = dose: 200.0 mg/kg/injection, schedule: Q04DX003 (ip), vehicle: saline with Tween-80
[3] = dose: 100.0 mg/kg/injection, schedule: Q04DX003 (ip), vehicle: saline
[4] = dose: 200.0 mg/kg/injection, schedule: Q04DX003 (ip), vehicle: saline
[5] = dose: 400.0 mg/kg/injection, schedule: Q04DX003 (ip), vehicle: saline
[6] = dose: 100.0 mg/kg/injection, schedule: Q01DX009 (ip), vehicle: Klucel (hydroxypropylcellulose) (HPC)
[7] = dose: 100.0 mg/kg/injection, schedule: Q04DX003 (ip), vehicle: Klucel (hydroxypropylcellulose) (HPC)
[8] = dose: 200.0 mg/kg/injection, schedule: Q01DX009 (ip), vehicle: Klucel (hydroxypropylcellulose) (HPC)
[9] = dose: 200.0 mg/kg/injection, schedule: Q04DX003 (ip), vehicle: Klucel (hydroxypropylcellulose) (HPC)
[10] = dose: 400.0 mg/kg/injection, schedule: Q01DX009 (ip), vehicle: Klucel (hydroxypropylcellulose) (HPC)
[11] = dose: 25.0 mg/kg/injection, schedule: Q01DX001 (ip), vehicle: Klucel (hydroxypropylcellulose) (HPC)
[12] = dose: 50.0 mg/kg/injection, schedule: Q01DX001 (ip), vehicle: Klucel (hydroxypropylcellulose) (HPC)
[13] = dose: 50.0 mg/kg/injection, schedule: Q01DX009 (ip), vehicle: Klucel (hydroxypropylcellulose) (HPC)
[14] = dose: 100.0 mg/kg/injection, schedule: Q01DX001 (ip), vehicle: Klucel (hydroxypropylcellulose) (HPC)

## CCCCNC(=O)OC/C=C/CC(Cl)(Cl)Cl
dose: 100.0 mg/kg/injection, schedule: Q01DX009 (sc), vehicle: olive oil, sesame oil, peanut oil
  T/C: 103 % of control
dose: 100.0 mg/kg/injection, schedule: Q04DX003 (sc), vehicle: olive oil, sesame oil, peanut oil
  T/C: 95 % of control
dose: 200.0 mg/kg/injection, schedule: Q01DX009 (sc), vehicle: olive oil, sesame oil, peanut oil
  T/C: 101 % of control
dose: 200.0 mg/kg/injection, schedule: Q04DX003 (sc), vehicle: olive oil, sesame oil, peanut oil
  T/C: 108 % of control
dose: 400.0 mg/kg/injection, schedule: Q01DX009 (sc), vehicle: olive oil, sesame oil, peanut oil
  T/C: 101 % of control
dose: 400.0 mg/kg/injection, schedule: Q04DX003 (sc), vehicle: olive oil, sesame oil, peanut oil
  T/C: 94 % of control

## CC(C)CC(=O)OC1CCCCC1
[1]
  T/C: 106 % of control
[2]
  T/C: 101 % of control
dose: 400.0 mg/kg/injection, schedule: Q04DX003 (ip), vehicle: saline with Tween-80
  T/C: 95 % of control

## CC(=O)CC(=O)NCc1cccnc1
dose: 50.0 mg/kg/injection, schedule: Q04DX003 (ip), vehicle: saline
  T/C: 106 % of control
dose: 100.0 mg/kg/injection, schedule: Q01DX009 (ip), vehicle: saline
  T/C: 93 % of control
[3]
  T/C: 97 % of control
dose: 200.0 mg/kg/injection, schedule: Q01DX009 (ip), vehicle: saline
  T/C: 104 % of control
[4]
  T/C: 94 % of control and 100 % of control
dose: 400.0 mg/kg/injection, schedule: Q01DX009 (ip), vehicle: saline
  T/C: 98 % of control
[5]
  T/C: 96 % of control

## O=c1oc(-c2ccco2)nc2ccccc12
[6]
  T/C: 101 % of control
[7]
  T/C: 102 % of control
[8]
  T/C: 110 % of control
[9]
  T/C: 95 % of control
dose: 400.0 mg/kg/injection, schedule: Q04DX003 (ip), vehicle: Klucel (hydroxypropylcellulose) (HPC)
  T/C: 93 % of control

## C/C(=N\NC(=S)Nc1cc(Cl)ccc1Cl)c1ccc(O)c(C)c1
dose: 12.5 mg/kg/injection, schedule: Q04DX002 (ip), vehicle: Klucel (hydroxypropylcellulose) (HPC)
  T/C: 102 % of control
dose: 25.0 mg/kg/injection, schedule: Q04DX002 (ip), vehicle: Klucel (hydroxypropylcellulose) (HPC)
  T/C: 102 % of control
dose: 50.0 mg/kg/injection, schedule: Q04DX002 (ip), vehicle: Klucel (hydroxypropylcellulose) (HPC)
  T/C: 105 % of control

## O=S(=O)(O)c1ccccc1.O=S(=O)(O)c1ccccc1.[NH-]C1CCCCC1[NH-].[Pt+2]
dose: 0.5 mg/kg/injection, schedule: Q04DX003 (ip), vehicle: dextrose
  T/C: 112 % of control
dose: 2.0 mg/kg/injection, schedule: Q04DX003 (ip), vehicle: dextrose
  T/C: 154 % of control
dose: 4.0 mg/kg/injection, schedule: Q04DX003 (ip), vehicle: dextrose
  T/C: 173 % of control
dose: 6.0 mg/kg/injection, schedule: Q04DX003 (ip), vehicle: dextrose
  T/C: 182 % of control

## COc1ccc(C(O)SP(=S)(OC)c2ccc(OC)cc2)cc1 (centres undefined)
dose: 50.0 mg/kg/injection, schedule: Q01DX009 (ip), vehicle: saline with Tween-80
  T/C: 100 % of control
dose: 100.0 mg/kg/injection, schedule: Q01DX009 (ip), vehicle: saline with Tween-80
  T/C: 100 % of control
[1]
  T/C: 92 % of control
dose: 200.0 mg/kg/injection, schedule: Q01DX009 (ip), vehicle: saline with Tween-80
  T/C: 95 % of control
[2]
  T/C: 88 % of control

## CC(=O)Nc1ccc(NC(=O)Nc2ccccc2F)cc1
[6]
  T/C: 98 % of control
[8]
  T/C: 96 % of control
[10]
  T/C: 102 % of control

## CCOC(=O)CN(c1c(C)cc(C)c(N(CC(=O)OCC)S(=O)(=O)c2ccccc2)c1C)S(=O)(=O)c1ccccc1
[3]
  T/C: 93 % of control
[4]
  T/C: 101 % of control
[5]
  T/C: 93 % of control

## CC[n+]1ccc(Nc2ccc(/C=C/c3ccc4cc(Nc5cc[n+](CC)cc5)ccc4[n+]3CC)cc2)cc1
dose: 2.5 mg/kg/injection, schedule: Q01DX009 (ip), vehicle: saline
  T/C: 112 % of control and 119 % of control and 120 % of control
dose: 5.0 mg/kg/injection, schedule: Q01DX009 (ip), vehicle: saline
  T/C: 150 % of control
dose: 10.0 mg/kg/injection, schedule: Q01DX009 (ip), vehicle: saline
  T/C: 182 % of control and 209 % of control
dose: 12.5 mg/kg/injection, schedule: Q01DX001 (ip), vehicle: saline
  T/C: 100 % of control
dose: 25.0 mg/kg/injection, schedule: Q01DX001 (ip), vehicle: saline
  T/C: 100 % of control
dose: 50.0 mg/kg/injection, schedule: Q01DX001 (ip), vehicle: saline
  T/C: 112 % of control

## CN(C)C(=O)Sc1ccc(Cl)cc1S(=O)(=O)F
[6]
  T/C: 97 % of control
[8]
  T/C: 100 % of control
[10]
  T/C: 89 % of control

## O=C(CCl)OCCI
dose: 6.25 mg/kg/injection, schedule: Q01DX009 (ip), vehicle: acetone
  T/C: 97 % of control
dose: 12.5 mg/kg/injection, schedule: Q01DX009 (ip), vehicle: acetone
  T/C: 95 % of control
dose: 25.0 mg/kg/injection, schedule: Q01DX009 (ip), vehicle: acetone
  T/C: 90 % of control
dose: 25.0 mg/kg/injection, schedule: Q04DX003 (ip), vehicle: acetone
  T/C: 99 % of control
dose: 35.0 mg/kg/injection, schedule: Q01DX009 (ip), vehicle: acetone
  T/C: 98 % of control
dose: 55.0 mg/kg/injection, schedule: Q01DX009 (ip), vehicle: acetone
  T/C: 90 % of control
dose: 80.0 mg/kg/injection, schedule: Q01DX009 (ip), vehicle: acetone
  T/C: 97 % of control
dose: 100.0 mg/kg/injection, schedule: Q01DX001 (ip), vehicle: acetone
  T/C: 97 % of control

## CCCN(CCC)CC(O)c1ccc2cccc3c2c1CC3 (centres undefined)
dose: 75.0 mg/kg/injection, schedule: Q01DX001 (ip), vehicle: saline
  T/C: 104 % of control
dose: 150.0 mg/kg/injection, schedule: Q01DX001 (ip), vehicle: saline
  T/C: 98 % of control
dose: 300.0 mg/kg/injection, schedule: Q01DX001 (ip), vehicle: saline
  T/C: 95 % of control

## CCOC(=O)C1(C(C)C)OC2(O)C3CCCN3C(=O)C(C(C)C)N2C1=O (centres undefined)
dose: 3.12 mg/kg/injection, schedule: Q03HX024 (ip), vehicle: Klucel (hydroxypropylcellulose) (HPC)
  T/C: 98 % of control
dose: 6.25 mg/kg/injection, schedule: Q03HX024 (ip), vehicle: Klucel (hydroxypropylcellulose) (HPC)
  T/C: 97 % of control
dose: 8.25 mg/kg/injection, schedule: Q01DX009 (ip), vehicle: Klucel (hydroxypropylcellulose) (HPC)
  T/C: 97 % of control
dose: 12.5 mg/kg/injection, schedule: Q01DX009 (ip), vehicle: Klucel (hydroxypropylcellulose) (HPC)
  T/C: 98 % of control
dose: 12.5 mg/kg/injection, schedule: Q03HX024 (ip), vehicle: Klucel (hydroxypropylcellulose) (HPC)
  T/C: 98 % of control
dose: 16.5 mg/kg/injection, schedule: Q01DX009 (ip), vehicle: Klucel (hydroxypropylcellulose) (HPC)
  T/C: 99 % of control
[11]
  T/C: 95 % of control
dose: 25.0 mg/kg/injection, schedule: Q01DX009 (ip), vehicle: Klucel (hydroxypropylcellulose) (HPC)
  T/C: 109 % of control
dose: 25.0 mg/kg/injection, schedule: Q03HX024 (ip), vehicle: Klucel (hydroxypropylcellulose) (HPC)
  T/C: 100 % of control
dose: 25.0 mg/kg/injection, schedule: Q04DX003 (ip), vehicle: alcohol
  T/C: 97 % of control
dose: 33.0 mg/kg/injection, schedule: Q01DX009 (ip), vehicle: Klucel (hydroxypropylcellulose) (HPC)
  T/C: 100 % of control
[12]
  T/C: 101 % of control
[13]
  T/C: 105 % of control
dose: 50.0 mg/kg/injection, schedule: Q03HX024 (ip), vehicle: Klucel (hydroxypropylcellulose) (HPC)
  T/C: 93 % of control
dose: 50.0 mg/kg/injection, schedule: Q04DX003 (ip), vehicle: alcohol
  T/C: 106 % of control
dose: 66.0 mg/kg/injection, schedule: Q01DX009 (ip), vehicle: Klucel (hydroxypropylcellulose) (HPC)
  T/C: 98 % of control
[14]
  T/C: 95 % of control
[6]
  T/C: 100 % of control
dose: 100.0 mg/kg/injection, schedule: Q04DX003 (ip), vehicle: alcohol
  T/C: 96 % of control
dose: 200.0 mg/kg/injection, schedule: Q01DX001 (ip), vehicle: Klucel (hydroxypropylcellulose) (HPC)
  T/C: 104 % of control
[8]
  T/C: 98 % of control
dose: 200.0 mg/kg/injection, schedule: Q04DX003 (ip), vehicle: alcohol
  T/C: 98 % of control

## S=C(S)Nc1ccccc1
[11]
  T/C: 95 % of control
[12]
  T/C: 92 % of control
[14]
  T/C: 94 % of control and 95 % of control

## Cc1cc(C)nc(NC(=O)COc2ccc(Cl)cc2)c1
[13]
  T/C: 97 % of control
[6]
  T/C: 100 % of control
[7]
  T/C: 101 % of control
[8]
  T/C: 93 % of control
[9]
  T/C: 97 % of control
